In PMC10065799, “High-throughput profiling of sequence recognition by tyrosine kinases and SH2 domains using bacterial peptide display” (eLife, 2023) one finds Screen data, which are given here for 46 sequences.

Read-outs that look alike come from different tables or passages of the source.

Holding throughout (experiment): pTyr-Var library bacterial peptide display kinase screen (enrichment scores)
One test deals with T1, c-Abl kinase domain (Mus musculus, UniProt P00520).
T1 sequence (P00520 242-493 limits assumed): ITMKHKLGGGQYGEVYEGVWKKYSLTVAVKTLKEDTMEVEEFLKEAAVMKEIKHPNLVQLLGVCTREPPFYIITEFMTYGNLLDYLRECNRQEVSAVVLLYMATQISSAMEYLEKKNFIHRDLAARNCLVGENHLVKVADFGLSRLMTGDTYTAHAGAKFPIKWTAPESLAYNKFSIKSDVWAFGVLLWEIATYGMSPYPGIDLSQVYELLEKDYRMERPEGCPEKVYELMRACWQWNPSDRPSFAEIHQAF
The format is biochemical.

The test system of a further test is Fer kinase domain. The format is biochemical, mouse. As to conditions: sheet "Fer".
The next test deals with c-Src kinase domain (Homo sapiens, UniProt P12931). The format is biochemical.
The subject of a further test is EPHB1 kinase domain. The format is biochemical, human. As to conditions: sheet EPHB1; effect of the variant peptide relative to its reference peptide in the pTyr-Var library screen (enrichment scores).
The mark [1] stands for this setting: fig5-data2, sheet "Abl", Screen for the variant/reference peptide pair, pTyr-Var library.
[2] abbreviates: variant peptide relative to its reference peptide, pTyr-Var library screen enrichment.
Where [3] appears, read: sheet "Abl", effect of variant peptide relative to its reference peptide in pTyr-Var library screen (enrichment).
Where [4] appears, read: sheet "Src", variant peptide versus its reference peptide in the pTyr-Var library screen.
Setting [5] is: value of the variant peptide against its reference peptide in the pTyr-Var library screen with Fer.
Setting [6] is: sheet "Src", effect of the variant peptide relative to its reference peptide in the pTyr-Var library screen.
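Note: log2 fold change in enrichment of variant over reference.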

At c-Abl kinase domain (setting [1]), GFPVHYTGVSN [DNMT3B_Y815_D817G] had a Screen of 0.7985. Consider TWEKPYECVQC [ZNF24_Y335_G331W], for which the Screen in the test with Fer kinase domain (setting [2]) is recorded as 1.366; on c-Abl kinase domain (setting [3]) it was -4.858.

In turn, KTSGNYLPVTG [WDR19_Y28_A30P] registered a Screen on c-Abl kinase domain (setting [3]) of -2.37. With TLERHYKELQA [SPTBN2_Y834_E835K], in the test with Fer kinase domain (setting [2]), the Screen was -2.093.

PMWHPYKADVT [TP53TG5_Y255_V257A] yielded a Screen at c-Src kinase domain (setting [4]) of -1.569. On the same count and under the same terms, the figure for LIGTPYWMAPE [PAK5_Y608_V604I] is -0.06712.

At c-Abl kinase domain (setting [1]), RVFRDYVLKSA [HTATIP2_Y111_D108Y_YF] displayed a Screen of -1.327.

ISRDVYSTDFF [NTRK2_Y702_M697I_YF]: the Screen on c-Src kinase domain (setting [4]) is reported as 0.05631. Turning to GSERRYTREGG [PTPRN2_Y139_S140T], the Screen at c-Abl kinase domain (setting [1]) was -0.6086. As for SRDDFYETIAM [NPY1R_Y347_D346Y_YF], the Screen in the test with Fer kinase domain (setting [5]) was 2.699. For VPLATYMQIFK [RPL21_Y30_R32Q_YF], the Screen in the test on EPHB1 kinase domain came out at 2.259; on c-Src kinase domain (setting [4]) it was 1.658. With TEIGQYGNGLK [MORC2_Y100_Q96E], the Screen at c-Abl kinase domain (setting [1]) was -0.8794. The sequence KKDGPYDVVVL [PARK7_Y67_E64D] yielded a Screen in the test on Fer kinase domain (setting [5]) of -0.9233.

At c-Src kinase domain (setting [4]), REVPVYISEDS [SYNM_Y460_G462S] gave a Screen of 1.666. For HQKKPYCHTHN [NRAP_Y53_A56T], the Screen in the test on Fer kinase domain (setting [5]) is reported as 0.08502; in the test with EPHB1 kinase domain it was 0.5433. In the test on Fer kinase domain (setting [5]), GHPFAYDWISI [BEST1_Y227_L224P_YF] yielded a Screen of -0.03554.

IFGVSYGEFRF [CFTR_Y512_D513G_YF]: the Screen is on record as -1.628 in the test with Fer kinase domain (setting [5]) and 1.211 on c-Src kinase domain (setting [6]). Consider VDTPMYATMQR [TPO_Y55_A53P], for which the Screen at c-Src kinase domain (setting [4]) is given as -0.2543.

FSQETYFRVSN [ABCD1_Y180_Q178E_YF]: the Screen on c-Src kinase domain amounted to 0.7032. At c-Abl kinase domain (setting [3]), CHSDDYVHISI [TSC1_Y406_L411I] returned a Screen of -1.634. Still for that read-out and setting: the figure for GLQDEYDFKCK [STAT1_Y170_D165G] is -1.133. The sequence PINLFYLMDLS [ITGB2_Y131_D128N_YF] returned a Screen on c-Src kinase domain (setting [6]) of -0.4123. On c-Src kinase domain (setting [6]), KQMEQYMSFHK [HCN1_Y417_V414M] displayed a Screen of 0.2609.

DEWFLYKMRDI [CPS1_Y879_K875E] gave a Screen on c-Abl kinase domain (setting [1]) of -2.954. Regarding TVSQPYSFIEF [SEC22B_Y110_R108Q], the values for the Screen in the test with Fer kinase domain (setting [2]) and on c-Src kinase domain (setting [4]) were 0.7571 and 0.852, respectively.

In the case of MSDVPYVMNRG [ACAT1_Y161_N158D], at c-Abl kinase domain (setting [1]), the Screen is given as 0.04557. The sequence NWGSPYKSDGC [ZNF347_Y261_N264D] gave a Screen at c-Abl kinase domain (setting [3]) of 3.66. As to DAVCFYRMENA [NPHS2_Y195_I192V_YF], the Screen at c-Src kinase domain (setting [4]) was 0.05721. With AEFGLYGAMVW [VSX2_Y222_R227W_YF], the Screen with Fer kinase domain (setting [2]) is on record as 1.328; at c-Abl kinase domain (setting [3]), 3.628; at c-Src kinase domain (setting [4]) it was -0.4242. In the case of SEKVVYQRFTE [NCF1_Y41_R42Q], at c-Src kinase domain (setting [4]), the Screen is 2.147.

For AERKLYRNVML [ZNF569_Y33_Q29E], the Screen at c-Abl kinase domain (setting [3]) worked out at 1.464. As for SVVVHYEPPEV [TP53_Y220_P219H], the Screen in the test with Fer kinase domain (setting [2]) is 1.725. PADCRYFTFPQ [GAMT_Y222_A224T_YF] yielded a Screen on c-Src kinase domain (setting [6]) of 0.8198. As to TLGPFYPSLLF [CRYAA_Y18_R21L], on c-Abl kinase domain (setting [1]), the Screen came out at 1.059. ENELTYFCFKK [CD59_Y86_C89Y_YF]: the Screen at c-Src kinase domain (setting [6]) is recorded as 1.06. In turn, NFPGGYSGSVK [MCPH1_Y606_L602F] displayed a Screen at c-Abl kinase domain (setting [1]) of 0.06785. On the same count and under the same terms, under RSSGGYEPRGC [FUS_Y239_R244C] stands -2.404. In the test with EPHB1 kinase domain, HFGNNYTDVLQ [MACC1_Y803_R804T_YF] came in with a Screen of 1.456.

For HLTLVYGGIFL [FBP1_Y259_R255L], the Screen on c-Src kinase domain (setting [6]) was -0.5188.

As for PNLILYGDFRQ [MYH7_Y715_R712L], the Screen at c-Src kinase domain (setting [4]) is -0.8884. As to SSEILYHIIKG [CDH17_Y489_K486E], at c-Src kinase domain (setting [6]), the Screen turned out to be 3.183. RTTIHYNFMCN [TP53_Y234_C229R_YF] returned a Screen at c-Abl kinase domain (setting [3]) of 1.254. As to PSPMPYAFCQM [FOXL2_Y215_S217F], the Screen in the test on Fer kinase domain (setting [5]) was determined as 3.3; at c-Src kinase domain (setting [6]), 1.188. Turning to FMGVEYSSCDT [EPHA3_Y937_T933M], the Screen at c-Abl kinase domain (setting [1]) was -2.367. As to AELKLYSGAQT [ZAP70_Y178_R175L], the Screen on c-Abl kinase domain (setting [3]) is recorded as -2.646. On to PVDGEYFTLQI [TP53_Y327_L323V], for which the Screen on c-Src kinase domain (setting [4]) is reported as -0.1089.
